Literature values in publication PMC4648373 (Cancer prevention research (Philadelphia, Pa.), 2015).
Like-named read-outs stand apart in the source and are kept apart here.

Legend:
AR signaling = settings: cell culture models, same concentration range
[1] = healthy human subjects
[2] = rodents

SMILES	anti-androgen (AR) signaling, cellular growth and survival activities (AR signaling)	conversion to DOH [1]	conversion to DOH [2]
CC(C)=CC(=O)O[C@H]1Cc2cc3ccc(=O)oc3cc2OC1(C)C [D, Decursin]	identical anti-androgen signaling and anti-proliferative activities	extensive conversion	rapidly and extensively converted to DOH
C/C=C(/C)C(=O)O[C@H]1Cc2cc3ccc(=O)oc3cc2OC1(C)C [DA, decursinol angelate]	identical anti-androgen signaling and anti-proliferative activities	extensive conversion	rapidly and extensively converted to DOH
CC1(C)Oc2cc3oc(=O)ccc3cc2C[C@@H]1O [DOH, decursinol]	much less inhibitory	–	–
